Measurements published in PMC12397098, “3-Monothiopomalidomide, a new immunomodulatory imide drug (IMiD), blunts inflammation and mitigates ischemic stroke in the rat” (GeroScience, 2025).
Like-named read-outs stand apart in the source and are kept apart here.

Legend:
[1] = Liver microsomal stability, rat
[2] = Liver microsomal stability, human; details: 1 μM
in vitro = details: Sprague Dawley, rat, microsomes
[3] = human, microsomes, 1 μM
[4] = Sprague Dawley, rat, microsomes, 1 h, 1 μM
[5] = system: IL-1β, TNF-α and IL-10 levels in animals with MCAo; set-up: method as in PMID 35631536; details: cited from earlier work
[6] = Pharmacokinetic evaluations of 3,6’-DP in rats; type: in vivo, rat; details: authors' recent pharmacokinetic evaluations, no data shown
[7] = set-up: method as in PMID 32589144; details: cited from earlier work
[8] = system: LPS-induced cytokines (TNF-α, IL-6, IL-10, IL-13) in plasma and cerebral cortex; experiment: Systemic and brain LPS anti-inflammatory study in rats; type: in vivo; details: rat, 1 h pre-treatment, 3-MP 13.23 and 26.47 mg/kg I.P., pomalidomide 25 mg/kg I.P., LPS 1 mg/kg I.P., 4 h
[9] = set-up: method as in earlier work; details: rat; cited from earlier work
[10] = cited from earlier work
[11] = set-up: method as in earlier work; details: nonhuman primate (cynomolgus monkey); cited from earlier work
[12] = system: LPS-induced cytokines (TNF-α, IL-6, IL-10, IL-13) in plasma and cerebral cortex; experiment: Systemic and brain LPS anti-inflammatory study in rats; type: in vivo; details: rat, LPS 1 mg/kg, 4 h
Method: They were administered, via the intraperitoneal (I.P.) route, nano-formulated 3-MP at a dose of 13.25 or 26.5 mg/kg (equimolar to a clinically translatable dose of 12.5 and 25 mg/kg thalidomide), vehicle or pomalidomide (25 mg/kg). One hour later, animals were administered either LPS (1 mg/kg, E.Coli 055:B5, Sigma Aldrich, in normal saline, 0.5 mg/mL) or an alike volume of saline (without LPS) via the I.P. route. The LPS dose was selected from prior pilot studies to provide a substantial but sub-maximal rise in plasma proinflammatory cytokine levels, in line with our prior research. The selected 3-MP and pomalidomide doses were chosen as they are equimolar to, or are less than, doses of thalidomide and analogues that have been verified to be well tolerated in our previous studies and are of translational relevance to humans. Four hours after LPS administration, the animals were euthanized, and blood and brain tissues were collected and placed on wet ice. Plasma was quickly separated from blood by centrifugation (10,000 × g, 5 min, 4 °C) and together with the brain samples (cerebral cortex) was stored at − 80 °C. At a later time, cerebral cortex samples were sonicated in a TRIS-based lysis buffer (Mesoscale Discovery) with 3 × protease/phosphatase inhibitors (Halt™ Protease and Phosphatase Inhibitor Cocktail, Thermo Fisher Scientific, Waltham, MA, USA). Samples were then centrifuged (10,000 × g, 5 min, 4 °C), supernatant separated, and protein concentrations were quantified by bicinchoninic acid assay (BCA, Thermo Fisher Scientific). Rat plasma and cerebral cortex samples were analyzed by multi-proinflammatory cytokine ELISA (V-PLEX Proinflammatory Panel 2 Rat Kit, Mesoscale Discovery) following the manufacturer’s protocol to quantify TNF-α, IL-6, IL-10, and IL-13 levels.

[13] = Sprague Dawley, rat, microsomes

## C[C@]12CC[C@H]3[C@@H](CCC4=CC(=O)CC[C@@]43C)[C@@H]1CC[C@@H]2O [Testosterone, testosterone]
[1]; [13]
  CLint scaled at 1 μM: 3910 mL/min/kg
  microsomal CLint at 1 μM: 2170 µL/min/mg
[1]; rat liver microsomes with NADPH, 1 μM, 60 min
  Remaining (T = 60 min): 0.1%
[1]; rat liver microsomes, no co-factor (no NADPH), 1 μM, 60 min
  Remaining (NCF = 60 min): 103.7%
[2]; human liver microsomes with NADPH, 60 min
  Remaining (T = 60 min): 13.2%
[2]; human liver microsomes with NADPH, scaled from Clint(mic)
  Clint(liver): 59.0 mL/min/kg
[2]; human liver microsomes, no co-factor (no NADPH), 60 min
  Remaining (NCF = 60 min): 97.1%

## O=C(O)Cc1ccccc1Nc1c(Cl)cccc1Cl [Diclofenac, diclofenac, reference compound]
In vitro
  CLint scaled at 1 μM: 227 mL/min/kg
  microsomal CLint at 1 μM: 126 µL/min/mg
[3]
  Clint(liver): 292.3 mL/min/kg
  Clint(mic): 324.8 µL/min/mg
[3]; 1 h
  Remaining (NCF = 60 min): 101.0%
  Remaining (T = 60 min): 0.0%
[4]
  Remaining (NCF = 60 min): 107.9%
  Remaining (T = 60 min): 2.2%

## Nc1cccc2c1C(=S)N(C1CCC(=S)NC1=O)C2=O (stereo not shown) [3,6’-DP, 3,6’-dithiopomalidomide]
[5]
  IL-1β levels: significantly reduce
  IL-10 levels: increased substantially
  TNF-α levels: significantly reduce
[6]
  disappearance from plasma: disappears relatively rapidly
  oral bioavailability: low
[7]
  brain/plasma concentration ratio: 0.8

## Nc1cccc2c1C(=O)N(C1CCC(=O)NC1=O)C2=O (stereo not shown) [pomalidomide]
[8]
  LPS-induced cytokine changes in plasma and cerebral cortex: significantly mitigated
[9]
  bioavailability: 13%
[10]
  brain/plasma concentration ratio: 0.71
[11]
  bioavailability: 15%
[12]; 3-MP both doses and pomalidomide I.P.
  LPS-mediated elevations in brain IL-13: maintained
[12]; 3-MP low dose 13.25 mg/kg I.P., pomalidomide 25 mg/kg I.P.
  decline in IL-6 brain levels: failed to achieve statistical significance
[12]; high- or low-dose 3-MP or pomalidomide I.P.
  IL-10 elevation induced by LPS in plasma or brain: not lessened
